# Measurements published in ChEMBL document CHEMBL2086259, “13,28-Epoxy triterpenoid saponins from Ardisia japonica selectively inhibit proliferation of liver cancer cells without affecting normal liver cells” (Bioorg Med Chem Lett, 2012).
# Activity calls are given as the source filed them. No cut-off for these calls is given here.
# Assays:
# A549 = assay: Cytotoxicity against human A549 cells after 72 hrs by MTT assay; format: functional, cell-based; conditions: A549, 72 h
# [1] = […] of Cdc25A expression in human HL-7702 cells assessed as reduction in mRNA level at 2.5 uM after 12 to 48 hrs by RT-PCR analysis; format: ADME, cell-based; conditions: l02, 2.5 µM
# [2] = Induction of apoptosis in human HL-7702 cells assessed as late apoptotic cells at 2.5 uM after 48 hrs by annexin V-FITC/propidium iodide staining based flow cytometry (Rvb =8.6 %); format: cell-based; conditions: l02, 48 h
# NCI-H157 = assay: Cytotoxicity against human NCI-H157 cells after 72 hrs by MTT assay; format: functional, cell-based; conditions: NCI-H157, 72 h
# Bel-7402 [3] = assay: Cytotoxicity against human Bel7402 cells after 72 hrs by MTT assay; format: functional, cell-based; conditions: Bel-7402, 72 h
# DU-145 = assay: Cytotoxicity against human DU145 cells after 72 hrs by MTT assay; format: functional, cell-based; conditions: DU-145, 72 h
# Bel-7402 [4] = assay: Induction of apoptosis in human Bel7402 cells assessed as increase in caspase 8 levels; format: functional, cell-based
# Bel-7402 [5] = assay: Induction of apoptosis in human Bel7402 cells assessed as early apoptotic cells at 2.5 uM after 24 hrs by annexin V-FITC/propidium iodide staining based flow cytometry (reference value: 3.8 %); format: functional
# [6] = Cytotoxicity against human HL-7702 cells at 2.5 uM by MTT assay; format: cell-based; conditions: l02, 2.5 µM, TDE = time-dependent effect
# Bel-7402 [7] = assay: Induction of apoptosis in human Bel7402 cells assessed as early apoptotic cells at 2.5 uM after 48 hrs by annexin V-FITC/propidium iodide staining based flow cytometry (reference value: 6.9 %); format: functional
# [8] = Induction of apoptosis in human HL-7702 cells assessed as early apoptotic cells at 2.5 uM after 48 hrs by annexin V-FITC/propidium iodide staining based flow cytometry (Rvb =6.7 %); format: cell-based; conditions: l02, 48 h
# MKN-45 = assay: Cytotoxicity against human MKN45 cells after 72 hrs by MTT assay; format: functional, cell-based; conditions: MKN-45, 72 h
# OVCAR-3 = assay: Cytotoxicity against human OVCAR3 cells after 72 hrs by MTT assay; format: functional, cell-based; conditions: OVCAR-3, 72 h
# Caco-2 = assay: Cytotoxicity against human Caco2 cells after 72 hrs by MTT assay; format: functional, cell-based; conditions: Caco-2, 72 h
# Bcap37 = assay: Cytotoxicity against human Bcap37 cells after 72 hrs by MTT assay; format: functional, cell-based; conditions: Bcap37, 72 h
# Bel-7402 [9] = assay: Induction of apoptosis in human Bel7402 cells assessed as late apoptotic cells at 2.5 uM after 12 hrs by annexin V-FITC/propidium iodide staining based flow cytometry (reference value: 5.5 %); format: functional
# Bel-7402 [10] = assay: Cell cycle arrest in human Bel7402 cells assessed as accumulation at G2/M phase by FACS flow cytometry; format: functional
# Bel-7402 [11] = assay: Cytotoxicity against human Bel7402 cells at 2.5 uM by MTT assay; format: functional, cell-based; conditions: TDE = time-dependent effect
# [12] = Cell cycle arrest in human HL-7702 cells assessed as accumulation at S phase by FACS flow cytometry; format: ADME, cell-based; conditions: l02
# Bel-7402 [13] = assay: Induction of apoptosis in human Bel7402 cells assessed as late apoptotic cells at 2.5 uM after 48 hrs by annexin V-FITC/propidium iodide staining based flow cytometry (reference value: 3.7 %); format: functional
# [14] = Cell cycle arrest in human HL-7702 cells assessed as accumulation at sub-G1 phase by FACS flow cytometry; format: cell-based; conditions: l02
# HepG2 = assay: Cytotoxicity against human HepG2 cells after 72 hrs by MTT assay; format: functional, cell-based; conditions: HepG2, 72 h
# Bel-7402 [15] = assay: Induction of apoptosis in human Bel7402 cells assessed as early apoptotic cells at 2.5 uM after 12 hrs by annexin V-FITC/propidium iodide staining based flow cytometry (reference value: 3.2 %); format: functional
# [16] = Cell cycle arrest in human HL-7702 cells assessed as accumulation at G1 phase by FACS flow cytometry; format: cell-based; conditions: l02
# HCT-116 = assay: Cytotoxicity against human HCT116 cells after 72 hrs by MTT assay; format: functional, cell-based; conditions: HCT-116, 72 h
# Bel-7402 [17] = assay: Cytotoxicity against human Bel7402 cells measured for 72 hrs by MTT assay; format: functional, cell-based
# SGC-7901 = assay: Cytotoxicity against human SGC7901 cells after 72 hrs by MTT assay; format: functional, cell-based; conditions: SGC-7901, 72 h
# [18] = Cytotoxicity against human LTEP-A2 cells after 72 hrs by MTT assay; format: functional, cell-based; conditions: LTEP-A2, 72 h
# Bel-7402 [19] = assay: Cell cycle arrest in human Bel7402 cells assessed as accumulation at G1 phase by FACS flow cytometry; format: functional
# MCF7 = assay: Cytotoxicity against human MCF7 cells after 72 hrs by MTT assay; format: functional, cell-based; conditions: MCF7, 72 h
# NCI-H446 = assay: Cytotoxicity against human NCI-H446 cells after 72 hrs by MTT assay; format: functional, cell-based; conditions: NCI-H446, 72 h
# Bel-7402 [20] = assay: Cell cycle arrest in human Bel7402 cells assessed as accumulation at sub-G1 phase by FACS flow cytometry; format: functional
# Bel-7402 [21] = assay: Induction of apoptosis in human Bel7402 cells assessed as late apoptotic cells at 2.5 uM after 24 hrs by annexin V-FITC/propidium iodide staining based flow cytometry (reference value: 7.5 %); format: functional
# [22] = Cytotoxicity against human HL-7702 cells measured for 72 hrs by MTT assay; format: cell-based; conditions: l02, 72 h
# [23] = Cell cycle arrest in human HL-7702 cells assessed as accumulation at G2/M phase by FACS flow cytometry; format: cell-based; conditions: l02
# NCI-H460 = assay: Cytotoxicity against human H460 cells after 72 hrs by MTT assay; format: functional, cell-based; conditions: NCI-H460, 72 h
# [24] = Cytotoxicity against human HL-7702 cells after 72 hrs by MTT assay; format: cell-based; conditions: L02, 72 h
# Bel-7402 [25] = assay: Down regulation of CDK1 expression in human Bel7402 cells at 2.5 uM after 48 hrs by Western blotting analysis; format: functional, cell-based
# Bel-7402 [26] = assay: Down regulation of CDK4 expression in human Bel7402 cells at 2.5 uM after 48 hrs by Western blotting analysis; format: functional, cell-based
# Bel-7402 [27] = assay: Down regulation of Cdc25A expression in human Bel7402 cells at 2.5 uM after 48 hrs by Western blotting analysis; format: functional, cell-based
# Bel-7402 [28] = assay: Down regulation of Cyclin A expression in human Bel7402 cells at 2.5 uM after 48 hrs by Western blotting analysis; format: functional, cell-based
# Bel-7402 [29] = assay: Down regulation of CDK2 expression in human Bel7402 cells at 2.5 uM after 48 hrs by Western blotting analysis; format: functional, cell-based
# Bel-7402 [30] = assay: Induction of apoptosis in human Bel7402 cells assessed as caspase 8 activation; format: functional, cell-based
# Bel-7402 [31] = assay: Down regulation of Cyclin B expression in human Bel7402 cells at 2.5 uM after 48 hrs by Western blotting analysis; format: functional, cell-based
# Bel-7402 [32] = assay: Down regulation of Cdc25A expression in human Bel7402 cells at 2.5 uM after 12 hrs by Western blotting analysis; format: functional, cell-based
# [33] = Down regulation of Cyclin A expression in human HL-7702 cells assessed as reduction in mRNA level at 2.5 uM after 48 hrs by RT-PCR analysis; format: ADME, cell-based; set-up: scale not given: the % may be the effect or the level left; conditions: l02, 48 h
structure (smiles),measurement,setting,value
C[C@@H]1O[C@@H](O[C@H]2[C@H](O[C@H]3CO[C@@H](O[C@H]4CC[C@]5(C)[C@H]6CC[C@]78OC[C@@]9(CCC(C)(C)C[C@H]97)[C@H](O)C[C@@]8(C)[C@]6(C)CC[C@H]5C4(C)C)[C@H](O[C@@H]4O[C@H](CO)[C@@H](O)[C@H](O)[C@H]4O)[C@H]3O)O[C@H](CO)[C@@H](O)[C@@H]2O)[C@H](O)[C@H](O)[C@H]1O,IC50,A549,4.41 µM
same,Activity,[1],Toxic
same,Activity,[2],8.9%
same,IC50,NCI-H157,5.21 µM
same,IC50,Bel-7402 [3],1.18 µM
same,IC50,DU-145,5.47 µM
same,Activity,Bel-7402 [4],Active
same,Activity,Bel-7402 [5],42.3%
same,Activity,[6],tde
same,Activity,Bel-7402 [7],16.1%
same,Activity,[8],7.2%
same,IC50,MKN-45,6.23 µM
same,IC50,OVCAR-3,8.22 µM
same,IC50,Caco-2,7.66 µM
same,IC50,Bcap37,> 10 µM
same,Activity,Bel-7402 [9],5.3%
same,Activity,Bel-7402 [10],23.4%
same,Activity,Bel-7402 [11],tde
same,Activity,[12],19.7%
same,Activity,Bel-7402 [13],36.7%
same,Activity,[14],< 1%
same,IC50,HepG2,3.17 µM
same,Activity,Bel-7402 [15],36.5%
same,Activity,[16],67.3%
same,IC50,HCT-116,> 10 µM
same,Activity,Bel-7402 [17],Dose-dependent effect
same,IC50,SGC-7901,5.88 µM
same,IC50,[18],7.92 µM
same,Activity,Bel-7402 [19],76.6%
same,IC50,MCF7,> 10 µM
same,IC50,NCI-H446,7.74 µM
same,Activity,Bel-7402 [20],48.4%
same,Activity,Bel-7402 [21],3.4%
same,Activity,[22],Dose-dependent effect
same,Activity,[23],12.3%
same,IC50,NCI-H460,> 10 µM
same,IC50,[24],> 100 µM
COc1cccc2c1C(=O)c1c(O)c3c(c(O)c1C2=O)C[C@@](O)(C(=O)CO)C[C@@H]3O[C@H]1C[C@H](N)[C@@H](O)[C@H](C)O1 [EPIRUBICIN],IC50,A549,0.88 µM
same,IC50,NCI-H157,1.72 µM
same,IC50,Bel-7402 [3],1.23 µM
same,IC50,DU-145,4.01 µM
same,IC50,MKN-45,0.66 µM
same,IC50,OVCAR-3,0.75 µM
same,IC50,Caco-2,0.41 µM
same,IC50,Bcap37,0.89 µM
same,IC50,HepG2,2.23 µM
same,IC50,HCT-116,0.57 µM
same,IC50,SGC-7901,0.51 µM
same,IC50,[18],3.41 µM
same,IC50,MCF7,1.25 µM
same,IC50,NCI-H446,2.35 µM
same,IC50,NCI-H460,6.74 µM
same,IC50,[24],1.74 µM
CC1(C)CC[C@]23CO[C@@]4(CC[C@@H]5[C@@]6(C)CC[C@H](O[C@@H]7OC[C@H](O[C@@H]8O[C@H](CO)[C@@H](O)[C@H](O[C@@H]9O[C@H](CO)[C@@H](O)[C@H](O[C@@H]%10O[C@H](CO)[C@@H](O)[C@H](O)[C@H]%10O)[C@H]9O)[C@H]8O[C@@H]8OC[C@@H](O)[C@H](O)[C@H]8O)[C@H](O)[C@H]7O[C@@H]7O[C@H](CO)[C@@H](O)[C@H](O)[C@H]7O)C(C)(C)[C@@H]6CC[C@@]5(C)[C@]4(C)C[C@H]2O)[C@@H]3C1 [ARDISIANOSIDE B],Activity,Bel-7402 [25],Active
same,IC50,A549,4.47 µM
same,Activity,[1],Toxic
same,Activity,[2],9.2%
same,Activity,Bel-7402 [26],Active
same,IC50,NCI-H157,5.09 µM
same,Activity,Bel-7402 [27],Active
same,IC50,Bel-7402 [3],0.92 µM
same,IC50,DU-145,6.17 µM
same,Activity,Bel-7402 [4],Active
same,Activity,Bel-7402 [5],46.4%
same,Activity,[6],tde
same,Activity,Bel-7402 [7],17.6%
same,Activity,[8],8.3%
same,IC50,MKN-45,8.39 µM
same,Activity,Bel-7402 [28],Active
same,IC50,OVCAR-3,> 10 µM
same,IC50,Caco-2,7.19 µM
same,IC50,Bcap37,> 10 µM
same,Activity,Bel-7402 [9],3.9%
same,Activity,Bel-7402 [10],25.5%
same,Activity,Bel-7402 [11],tde
same,Activity,[12],19.1%
same,Activity,Bel-7402 [13],41.5%
same,Activity,[14],< 1%
same,IC50,HepG2,2.98 µM
same,Activity,Bel-7402 [15],39.4%
same,Activity,Bel-7402 [29],Active
same,Activity,[16],68.4%
same,IC50,HCT-116,> 10 µM
same,Activity,Bel-7402 [17],Dose-dependent effect
same,Activity,Bel-7402 [30],Active
same,IC50,SGC-7901,5.37 µM
same,IC50,[18],> 10 µM
same,Activity,Bel-7402 [19],74.5%
same,IC50,MCF7,> 10 µM
same,IC50,NCI-H446,6.63 µM
same,Activity,Bel-7402 [20],57.8%
same,Activity,Bel-7402 [31],Active
same,Activity,Bel-7402 [21],3.2%
same,Activity,[22],Dose-dependent effect
same,Activity,[23],12.5%
same,Activity,Bel-7402 [32],Active
same,Activity,[33],10%
same,IC50,NCI-H460,> 10 µM
same,IC50,[24],> 100 µM
